The results in this text go back to paper PMC2919811 (Analytical biochemistry, 2010).

Structures are written as SMILES.

Type in all cases: cell-based
What all share (settings): 10 μM 8-FcA, 20 minutes

One experiment concerns the target T1, OCT2 (Homo sapiens, UniProt O15244).
T1 sequence (O15244 1-555): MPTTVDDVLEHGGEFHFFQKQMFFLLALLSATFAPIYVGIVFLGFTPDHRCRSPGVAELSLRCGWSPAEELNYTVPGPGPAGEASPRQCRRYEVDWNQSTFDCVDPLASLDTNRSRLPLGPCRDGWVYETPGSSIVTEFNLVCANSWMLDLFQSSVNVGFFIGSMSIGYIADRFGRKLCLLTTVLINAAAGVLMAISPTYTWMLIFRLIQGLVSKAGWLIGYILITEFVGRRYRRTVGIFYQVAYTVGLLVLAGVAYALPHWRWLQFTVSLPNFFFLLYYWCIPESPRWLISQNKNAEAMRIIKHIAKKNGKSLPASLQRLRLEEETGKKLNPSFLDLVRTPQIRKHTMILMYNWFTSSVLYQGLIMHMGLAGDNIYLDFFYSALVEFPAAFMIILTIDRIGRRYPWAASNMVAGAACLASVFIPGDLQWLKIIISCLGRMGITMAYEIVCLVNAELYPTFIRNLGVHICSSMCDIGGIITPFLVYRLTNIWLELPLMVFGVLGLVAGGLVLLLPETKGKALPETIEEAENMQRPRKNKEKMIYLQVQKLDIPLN
Briefly: Cellular accumulation in CHO cells transiently transfected with OCT2.

For the next experiment, the target named is T2, OAT1 (Homo sapiens, UniProt Q4U2R8).
T2 sequence (Q4U2R8 1-563): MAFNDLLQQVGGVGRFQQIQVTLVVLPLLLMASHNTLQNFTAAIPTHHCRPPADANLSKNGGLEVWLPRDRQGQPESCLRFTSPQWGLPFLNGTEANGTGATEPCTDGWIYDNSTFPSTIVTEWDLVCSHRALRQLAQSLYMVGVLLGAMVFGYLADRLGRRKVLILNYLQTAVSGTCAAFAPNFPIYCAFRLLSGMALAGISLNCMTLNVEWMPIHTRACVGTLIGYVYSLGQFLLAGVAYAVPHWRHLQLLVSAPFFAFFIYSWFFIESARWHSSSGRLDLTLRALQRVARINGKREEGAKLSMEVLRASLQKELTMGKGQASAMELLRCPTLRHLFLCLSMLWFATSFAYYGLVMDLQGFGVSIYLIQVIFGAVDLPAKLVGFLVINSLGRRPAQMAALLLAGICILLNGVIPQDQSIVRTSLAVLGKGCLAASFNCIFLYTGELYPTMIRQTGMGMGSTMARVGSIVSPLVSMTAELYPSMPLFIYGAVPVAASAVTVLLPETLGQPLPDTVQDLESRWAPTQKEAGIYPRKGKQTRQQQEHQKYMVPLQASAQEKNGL
The experiment is described as follows: Cellular accumulation in CHO cells transiently transfected with OAT1.

For the next experiment, the target named is T3, NTCP (Homo sapiens, UniProt Q14973).
T3 sequence (Q14973 1-349): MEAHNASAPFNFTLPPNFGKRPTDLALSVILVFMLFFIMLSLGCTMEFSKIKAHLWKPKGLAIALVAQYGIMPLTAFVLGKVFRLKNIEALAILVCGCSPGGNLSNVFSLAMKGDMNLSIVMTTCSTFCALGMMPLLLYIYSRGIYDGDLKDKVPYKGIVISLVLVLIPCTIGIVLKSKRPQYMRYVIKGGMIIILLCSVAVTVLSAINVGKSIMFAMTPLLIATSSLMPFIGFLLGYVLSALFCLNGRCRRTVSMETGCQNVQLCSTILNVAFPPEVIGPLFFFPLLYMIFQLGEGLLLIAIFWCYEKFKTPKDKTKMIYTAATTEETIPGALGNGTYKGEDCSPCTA
The experiment is described as follows: Cellular accumulation in CHO cells transiently transfected with NTCP.

The target in the next experiment is T4, OAT3 (Homo sapiens, UniProt Q8TCC7).
T4 sequence (Q8TCC7 1-542): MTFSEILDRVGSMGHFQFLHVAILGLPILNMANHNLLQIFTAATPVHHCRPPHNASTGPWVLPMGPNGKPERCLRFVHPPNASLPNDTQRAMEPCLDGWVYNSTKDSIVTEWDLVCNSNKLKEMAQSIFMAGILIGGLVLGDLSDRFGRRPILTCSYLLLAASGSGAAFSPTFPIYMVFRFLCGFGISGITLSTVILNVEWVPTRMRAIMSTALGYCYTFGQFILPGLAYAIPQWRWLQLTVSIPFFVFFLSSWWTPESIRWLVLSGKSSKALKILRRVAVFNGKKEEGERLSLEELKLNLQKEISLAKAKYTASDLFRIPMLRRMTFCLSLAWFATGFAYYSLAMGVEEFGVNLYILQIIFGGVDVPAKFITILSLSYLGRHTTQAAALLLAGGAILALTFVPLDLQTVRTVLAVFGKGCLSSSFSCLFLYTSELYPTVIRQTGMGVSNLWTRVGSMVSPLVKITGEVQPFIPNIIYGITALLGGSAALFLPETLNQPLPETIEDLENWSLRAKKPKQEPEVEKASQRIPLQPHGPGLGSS

For the compound `Nc1ncnc2c1nc(SCCNC(=S)Nc1ccc(-c3c4ccc(=O)cc-4oc4cc(O)ccc34)c(C(=O)O)c1)n2[C@@H]1O[C@@H]2COP(=O)(O)O[C@H]2[C@H]1O` [8-FcA, 8-(2-[Fluoresceinyl]aminoethylthio) adenosine-3', 5'-cyclic monophosphate], the “cellular accumulation by fluorescence microscopy, OCT2” value at OCT2 is on record as “negative”. Moreover, the “cellular accumulation by fluorescence microscopy, OAT1” value at OAT1 is listed as “modest accumulation”. The “cellular accumulation by fluorescence microscopy, NTCP” value on NTCP is listed as “negative”. The “cellular accumulation by fluorescence microscopy, OAT3” value at OAT3 is given as “negative”.
